Assay: Determination of the log P values by HPLC (formic acid method)
Format: physicochemical
Settings: reversed-phase column (C 18), acidic range (pH 3.4), 55° C.
Procedure: 1) Description of Method for Determination of the Log P Values (Formic Acid Method)
Eluents for determination in the acidic range (pH 3.4):
Eluent A: acetonitrile+1 ml of formic acid/liter. Eluent B: water+0.9 ml of formic acid/liter.
The lambda max values were determined in the maxima of the chromatographic signals using the UV spectra from 200 nm to 400 nm.

Point of comparison: `Cn1ncc(Br)c1C(=O)Nc1ccn(-c2c(F)cccc2F)n1` [Compound I-1-302], “log P” value 2.50. Against it:
- CCCN(C(=O)c1ccccc1C(F)(F)F)c1ccn(-c2c(F)cccc2F)n1 [Compound I-1-261] — higher, 3.64
- O=C(c1ccccc1C(F)(F)F)N(CC(F)F)c1ccn(-c2c(F)cccc2F)n1 [Compound I-1-264] — higher, 3.38
- O=C(c1ccccc1C(F)(F)F)N(CC(F)(F)F)c1ccn(-c2c(F)cccc2F)n1 [Compound I-1-265] — higher, 3.59
- O=C(Nc1ccn(-c2c(F)cccc2F)n1)c1cccc(Cl)c1Cl [Compound I-1-266] — higher, 2.93
- O=C(Nc1ccn(-c2c(F)cccc2F)n1)c1c(Cl)cccc1Cl [Compound I-1-267] — higher, 2.72
- Cc1cccc(C)c1C(=O)Nc1ccn(-c2c(F)cccc2F)n1 [Compound I-1-268] — within 0.2 log units, 2.68
- CC(=O)Nc1ccccc1C(=O)Nc1ccn(-c2c(F)cccc2F)n1 [Compound I-1-269] — lower, 2.20
- CC(=O)c1ccccc1C(=O)Nc1ccn(-c2c(F)cccc2F)n1 [Compound I-1-270] — within 0.2 log units, 2.38
- COc1cccc(Cl)c1C(=O)Nc1ccn(-c2c(F)cccc2F)n1 [Compound I-1-271] — within 0.2 log units, 2.47
- N#Cc1ccccc1C(=O)Nc1ccn(-c2c(F)cccc2F)n1 [Compound I-1-272] — within 0.2 log units, 2.48
- O=C(Nc1ccn(-c2c(F)cccc2F)n1)c1ccccc1C1CC1 [Compound I-1-273] — higher, 2.89
- CCc1cccc(F)c1C(=O)Nc1ccn(-c2c(F)cccc2F)n1 [Compound I-1-274] — higher, 2.85
- CCc1ncccc1C(=O)Nc1ccn(-c2c(F)cccc2F)n1 [Compound I-1-275] — lower, 1.47
- O=C(Nc1ccn(-c2c(F)cccc2F)n1)c1c(F)cccc1C(F)(F)F [Compound I-1-276] — higher, 2.72
- O=C(Nc1ccn(-c2c(F)cccc2F)n1)c1c(F)cccc1I [Compound I-1-277] — higher, 2.74
- O=C(Nc1ccn(-c2c(F)cccc2F)n1)c1ccccc1F [Compound I-1-278] — within 0.2 log units, 2.60
- O=C(Nc1ccn(-c2c(F)cccc2F)n1)c1cccnc1F [Compound I-1-279] — lower, 2.00
- Cc1occc1C(=O)Nc1ccn(-c2c(F)cccc2F)n1 [Compound I-1-281] — within 0.2 log units, 2.43
- O=C(Nc1ccn(-c2c(F)cccc2F)n1)c1sccc1C(F)F [Compound I-1-282] — higher, 2.80
- Cn1nc(C(F)F)c(C(=O)Nc2ccn(-c3c(F)cccc3F)n2)c1F [Compound I-1-283] — lower, 2.27
- CCc1nccnc1C(=O)Nc1ccn(-c2c(F)cccc2F)n1 [Compound I-1-285] — within 0.2 log units, 2.65
- O=C(Nc1ccn(-c2ncc(F)cc2Cl)n1)c1c(F)cccc1F [Compound I-1-286] — within 0.2 log units, 2.33
- O=C(Nc1ccn(-c2c(F)cccc2F)n1)c1cccc(F)c1C(F)(F)F [Compound I-1-287] — higher, 2.76
- O=C(Nc1ccn(-c2c(F)cccc2F)n1)c1occc1I [Compound I-1-288] — within 0.2 log units, 2.64
- CC(C)Cc1nn(C)c(C(=O)Nc2ccn(-c3c(F)cccc3F)n2)c1[N+](=O)[O-] [Compound I-1-289] — higher, 3.19
- CC(C)c1nn(C)c(C(=O)Nc2ccn(-c3c(F)cccc3F)n2)c1[N+](=O)[O-] [Compound I-1-290] — higher, 2.93
- Cc1noc(C(F)(F)F)c1C(=O)Nc1ccn(-c2c(F)cccc2F)n1 [Compound I-1-291] — higher, 2.80
- Cn1nc(C(C)(C)C)c([N+](=O)[O-])c1C(=O)Nc1ccn(-c2c(F)cccc2F)n1 [Compound I-1-292] — higher, 3.33
- Cn1nc(C(C)(C)C)c(Cl)c1C(=O)Nc1ccn(-c2c(F)cccc2F)n1 [Compound I-1-293] — higher, 4.15
- Cc1nn(C)c(C(=O)Nc2ccn(-c3c(F)cccc3F)n2)c1C(F)F [Compound I-1-294] — within 0.2 log units, 2.34
- O=C(Nc1ccn(-c2c(F)cccc2F)n1)c1cncnc1C(F)(F)F [Compound I-1-295] — lower, 2.25
- O=C(Nc1ccn(-c2c(F)cccc2F)n1)c1c(C(F)(F)F)cc(F)c(F)c1F [Compound I-1-296] — higher, 3.14
- Cc1onc(C(=O)Nc2ccn(-c3c(F)cccc3F)n2)c1C [Compound I-1-297] — higher, 2.76
- Cc1nn(C)c(C(=O)Nc2ccn(-c3c(F)cccc3F)n2)c1Br [Compound I-1-298] — higher, 2.76
- CCn1ncc(Br)c1C(=O)Nc1ccn(-c2c(F)cccc2F)n1 [Compound I-1-299] — higher, 2.84
- CCn1nc(C)c(Br)c1C(=O)Nc1ccn(-c2c(F)cccc2F)n1 [Compound I-1-300] — higher, 3.15
- Cn1cc(Br)c(C(=O)Nc2ccn(-c3c(F)cccc3F)n2)n1 [Compound I-1-301] — within 0.2 log units, 2.37
- Cn1nc(C(F)(F)F)c(Br)c1C(=O)Nc1ccn(-c2c(F)cccc2F)n1 [Compound I-1-303] — higher, 3.37
- Cc1oc(C)c(C(=O)Nc2ccn(-c3c(F)cccc3F)n2)c1Br [Compound I-1-304] — higher, 3.38
- O=C(Nc1ccn(-c2c(F)cccc2F)n1)c1cscc1Br [Compound I-1-305] — within 0.2 log units, 2.61
- Cc1nn(C(F)F)c(C(=O)Nc2ccn(-c3c(F)cccc3F)n2)c1Cl [Compound I-1-306] — higher, 3.11
- Cc1nn(C)c(C(=O)Nc2ccn(-c3c(F)cccc3F)n2)c1Cl [Compound I-1-307] — higher, 2.78
- CCn1ncc(Cl)c1C(=O)Nc1ccn(-c2c(F)cccc2F)n1 [Compound I-1-308] — within 0.2 log units, 2.61
- CCn1nc(C)c(Cl)c1C(=O)Nc1ccn(-c2c(F)cccc2F)n1 [Compound I-1-309] — higher, 3.15
- CC(C)n1nc([N+](=O)[O-])c(Cl)c1C(=O)Nc1ccn(-c2c(F)cccc2F)n1 [Compound I-1-310] — higher, 3.28
- Cn1ncc(Cl)c1C(=O)Nc1ccn(-c2c(F)cccc2F)n1 [Compound I-1-311] — within 0.2 log units, 2.46
- Cn1nc([N+](=O)[O-])c(Cl)c1C(=O)Nc1ccn(-c2c(F)cccc2F)n1 [Compound I-1-312] — higher, 2.70
- CCCc1nn(C)c(C(=O)Nc2ccn(-c3c(F)cccc3F)n2)c1Cl [Compound I-1-313] — higher, 3.68
- CCCc1c(Cl)c(C(=O)Nc2ccn(-c3c(F)cccc3F)n2)nn1C [Compound I-1-314] — higher, 3.32
- CCCn1cc(Cl)c(C(=O)Nc2ccn(-c3c(F)cccc3F)n2)n1 [Compound I-1-315] — higher, 3.05
- CCc1nn(C)c(C(=O)Nc2ccn(-c3c(F)cccc3F)n2)c1Cl [Compound I-1-316] — higher, 3.24
- Cn1nc(C(F)(F)C(F)(F)F)c(C#N)c1C(=O)Nc1ccn(-c2c(F)cccc2F)n1 [Compound I-1-317] — higher, 3.37
- Cn1nc(C(F)(F)F)c(C#N)c1C(=O)Nc1ccn(-c2c(F)cccc2F)n1 [Compound I-1-318] — higher, 2.98
- O=C(Nc1ccn(-c2c(F)cccc2F)n1)c1snnc1C1CC1 [Compound I-1-319] — within 0.2 log units, 2.68
- Cc1nn(C)c(C(=O)Nc2ccn(-c3c(F)cccc3F)n2)c1F [Compound I-1-320] — lower, 2.20
- Cn1ncc(F)c1C(=O)Nc1ccn(-c2c(F)cccc2F)n1 [Compound I-1-321] — lower, 2.27
- O=C(Nc1ccn(-c2c(F)cccc2F)n1)c1ccc(F)cc1C(F)(F)F [Compound I-1-322] — higher, 2.80
- CC(C)Cn1ncc(I)c1C(=O)Nc1ccn(-c2c(F)cccc2F)n1 [Compound I-1-323] — higher, 3.47
- Cn1ncc(I)c1C(=O)Nc1ccn(-c2c(F)cccc2F)n1 [Compound I-1-324] — within 0.2 log units, 2.46

— patent US9802899B2, “Heterocyclic compounds as pesticides” (BAYER CROPSCIENCE AG, priority 2012, dated 2017)
